Numbers after ± are expanded uncertainties.
Assay: Molar enthalpy of transition or fusion
Settings: DSC

Molar enthalpy of transition or fusion (Crystal 1): 2.9 ± 0.2 kJ/mol
Molar enthalpy of transition or fusion (Crystal 2): 25 ± 0.7 kJ/mol
Compound: O[C@@H]1[C@@H](O)[C@@H]2OC[C@@H](O2)[C@H]1O [1,6-anhydro-β-D-glucopyranose]
